No end group written: not given here.
System: BALB/c (H-2d) mice
Assay: Cellular responses (spleen cell proliferation) after immunization with different MALP-2 doses (Example 3)
Assay type: in vivo
Conditions: 1 μg MALP-2; spleen cells restimulated with β-galactosidase; day 28
Method: β-Galactosidase-specific T-cell proliferation responses of mouse spleen cells immunized by the i.p. or i.n. routes with either pure β-galactosidase (40 μg/dose) or β-galactosidase mixed with MAPL-2 (1 or 0.5 μg/dose) on days 0, 7 and 14. On day 28 after the primary immunization, the animals were sacrificed and the spleen cells were restimulated in vitro in the presence of 20 μg/ml soluble β-galactosidase for four days. The results are shown as stimulation indices (cpm of samples/cpm in unstimulated control cells).
Six- to eight-week old female BALB/c (H-2d) mice were purchased from Harlan Winkelmann GmbH (Borchen, Germany) and treated in accordance with local and EU directives. Groups each of 5 mice were immunized on day 1, 7 and 14 either with 40 μg of pure β-galactosidase (Boehringer, Mannheim, Germany), or with admixture of 1 or 0.5 μg of synthetic MALP-2. For the intranasal administration (i.n.), 10 μl was administered into each nostril, while for the i.p. injection β-galactosidase was resuspended with or without MALP-2 in 400 μl of PBS. […] The cells were then harvested on filter paper (Filtermat A; Wallac, Freiburg, Germany) with a cell harvester (Inotech, Wohlen, Switzerland), and the amount of [H]thymidine incorporated into the DNA of the proliferated cells was determined with the aid of a […] scintillation counter (Wallac 1450, Micro-Trilux). […]

S-[2,3-bispalmitoyloxypropyl]cysteinyl-GNNDESNISFKEK ({S‑(2,3-bispalmitoyloxypropyl)Cys}-GNNDESNISFKEK) [MALP-2]
cell-mediated immunization (spleen cell proliferation) at higher dose: cell-mediated immunization is reduced

Reference: patent US10905761B2, “Use of a lipopeptide or lipoprotein as an adjuvant in therapeutic or prophylactic vaccinations” (HELMHOLTZ-ZENTRUM FUER INFEKTIONSFORSCHUNG GMBH, priority 2002, dated 2021)
